Read-outs that look alike come from different tables or passages of the source.
Key:
Assay type in all cases: cell-based
ACHN = test: NCI in vitro cytotoxicity (SRB, 48 h), Renal panel; details: Homo sapiens, 48 h exposure
SW-620 = test: NCI in vitro cytotoxicity (SRB, 48 h), Colon panel; details: Homo sapiens; SW-620, Colon; 48 h exposure
M14 = test: NCI in vitro cytotoxicity (SRB, 48 h), Melanoma panel; details: Homo sapiens, 48 h exposure
SK-MEL-28 = test: as above; details: Homo sapiens; SK-MEL-28, Melanoma; 48 h exposure
Colon cancer cell lines = test: NCI in vitro cytotoxicity, whole panel; details: Homo sapiens
A549/ATCC = test: NCI in vitro cytotoxicity (SRB, 48 h), Non-small cell lung panel; details: Homo sapiens, 48 h exposure
COLO 205 = test: NCI in vitro cytotoxicity (SRB, 48 h), Colon panel; details: Homo sapiens; COLO 205, Colon; 48 h exposure
CNS cancer cell lines = test: NCI in vitro cytotoxicity, whole panel; details: Homo sapiens
SF-268 = test: NCI in vitro cytotoxicity (SRB, 48 h), CNS panel; details: Homo sapiens; SF-268, CNS; 48 h exposure
HCT-15 = test: NCI in vitro cytotoxicity (SRB, 48 h), Colon panel; details: Homo sapiens; HCT-15, Colon; 48 h exposure
EKVX = test: NCI in vitro cytotoxicity (SRB, 48 h), Non-small cell lung panel; details: Homo sapiens, 48 h exposure
[1] = tested on: Prostate cancer cell lines; test: NCI in vitro cytotoxicity, whole panel; details: Homo sapiens
MALME-3M = test: NCI in vitro cytotoxicity (SRB, 48 h), Melanoma panel; details: Homo sapiens, 48 h exposure
U251 = test: NCI in vitro cytotoxicity (SRB, 48 h), CNS panel; details: Homo sapiens, U-251, 48 h exposure
CAKI-1 = test: NCI in vitro cytotoxicity (SRB, 48 h), Renal panel; details: Homo sapiens; CAKI-1, Renal; 48 h exposure
SN12C = test: NCI in vitro cytotoxicity (SRB, 48 h), Renal panel; details: Homo sapiens, 48 h exposure
DU-145 = test: NCI in vitro cytotoxicity (SRB, 48 h), Prostate panel; details: Homo sapiens; DU-145, Prostate; 48 h exposure
HS 578T = test: NCI in vitro cytotoxicity (SRB, 48 h), Breast panel; details: Homo sapiens, 48 h exposure
SK-MEL-5 = test: NCI in vitro cytotoxicity (SRB, 48 h), Melanoma panel; details: Homo sapiens; SK-MEL-5, Melanoma; 48 h exposure
PC-3 = test: NCI in vitro cytotoxicity (SRB, 48 h), Prostate panel; details: Homo sapiens; PC-3, Prostate; 48 h exposure
OVCAR-5 = test: NCI in vitro cytotoxicity (SRB, 48 h), Ovarian panel; details: Homo sapiens; OVCAR-5, Ovarian; 48 h exposure
OVCAR-3 = test: as above; details: Homo sapiens; OVCAR-3, Ovarian; 48 h exposure
HT29 = test: NCI in vitro cytotoxicity (SRB, 48 h), Colon panel; details: Homo sapiens, HT-29, 48 h exposure
RXF 393 = test: NCI in vitro cytotoxicity (SRB, 48 h), Renal panel; details: Homo sapiens; RXF 393, Renal; 48 h exposure
IGROV1 = test: NCI in vitro cytotoxicity (SRB, 48 h), Ovarian panel; details: Homo sapiens, IGROV-1; IGROV1, Ovarian; 48 h exposure
NCI/ADR-RES = test: as above; details: Homo sapiens, 48 h exposure
SF-295 = test: NCI in vitro cytotoxicity (SRB, 48 h), CNS panel; details: Homo sapiens; SF-295, CNS; 48 h exposure
LOX IMVI = test: NCI in vitro cytotoxicity (SRB, 48 h), Melanoma panel; details: Homo sapiens, 48 h exposure
UO-31 = test: NCI in vitro cytotoxicity (SRB, 48 h), Renal panel; details: Homo sapiens; UO-31, Renal; 48 h exposure
786-0 = test: NCI in vitro cytotoxicity (SRB, 48 h), Renal panel; details: Homo sapiens; 786-0, Renal; 48 h exposure
KM12 = test: NCI in vitro cytotoxicity (SRB, 48 h), Colon panel; details: Homo sapiens, 48 h exposure
NCI-H522 = test: NCI in vitro cytotoxicity (SRB, 48 h), Non-small cell lung panel; details: Homo sapiens, 48 h exposure
UACC-62 = test: NCI in vitro cytotoxicity (SRB, 48 h), Melanoma panel; details: Homo sapiens; UACC-62, Melanoma; 48 h exposure
NCI-H226 = test: NCI in vitro cytotoxicity (SRB, 48 h), Non-small cell lung panel; details: Homo sapiens, 48 h exposure
HCT-116 = test: NCI in vitro cytotoxicity (SRB, 48 h), Colon panel; details: Homo sapiens; HCT-116, Colon; 48 h exposure
UACC-25 = test: NCI in vitro cytotoxicity (SRB, 48 h), Melanoma panel; details: Homo sapiens; UACC-25, Melanoma; 48 h exposure
MDA-MB-468 = test: NCI in vitro cytotoxicity (SRB, 48 h), Breast panel; details: Homo sapiens; MDA-MB-468, Breast; 48 h exposure
OVCAR-4 = test: NCI in vitro cytotoxicity (SRB, 48 h), Ovarian panel; details: Homo sapiens; OVCAR-4, Ovarian; 48 h exposure
MDAMB-435 = test: NCI in vitro cytotoxicity (SRB, 48 h), Melanoma panel; details: Homo sapiens, MDA-MB-435; MDAMB-435, Melanoma; 48 h exposure
TK-10 = test: NCI in vitro cytotoxicity (SRB, 48 h), Renal panel; details: Homo sapiens; TK-10, Renal; 48 h exposure

## COc1cc(C(=O)/C=C/c2c(-c3ccc(F)cc3)nc3sc(C)cn23)cc(OC)c1OC [Compound 19e, (E)-3-(6-(4-fluorophenyl)-2-methylimidazo[2,1-b]thiazol-5-yl)-1-(3,4,5-trimethoxyphenyl)prop-2-en-1-one]
ACHN
  GI50: 5.83 µM
SW-620
  GI50: 5.34 µM
M14
  GI50: 5.12 µM
SK-MEL-28
  GI50: 7.07 µM
Colon cancer cell lines; Colon, average of six to eight cell lines, read-out: Log10 GI50 (converted)
  GI50: 5.01 µM
Colon cancer cell lines; Colon, average of six to eight cell lines, read-out: Log10 LC50 (converted)
  CC50: ≥ 100 µM
Colon cancer cell lines; exposure period of at least 48 hrs, read-out: GI50, range over colon cell lines
  GI50: 2.92 to 9.93 µM
A549/ATCC
  GI50: 9.34 µM
COLO 205
  GI50: 4.94 µM
CNS cancer cell lines; CNS cell, exposure period of at least 48 hrs, read-out: GI50, range over CNS cell lines
  GI50: 2.33 to 87.8 µM
CNS cancer cell lines; CNS, average of six to eight cell lines, read-out: Log10 GI50 (converted)
  GI50: 12.6 µM
CNS cancer cell lines; CNS, average of six to eight cell lines, read-out: Log10 LC50 (converted)
  CC50: ≥ 100 µM
SF-268
  GI50: 15.2 µM
HCT-15
  GI50: 3.76 µM
EKVX
  GI50: 2.29 µM
[1]; Prostate cell, exposure period of at least 48 hrs, read-out: GI50, range over prostate cell lines
  GI50: 2.41 to 7.52 µM
[1]; Prostate, average of the panel's cell lines, read-out: Log10 GI50 (converted)
  GI50: 4.27 µM
[1]; Prostate, average of the panel's cell lines, read-out: Log10 LC50 (converted)
  LC50: ≥ 100 µM
MALME-3M
  GI50: 2.69 µM
U251
  GI50: 4.07 µM
CAKI-1
  GI50: 1.78 µM
SN12C
  GI50: 9.01 µM
DU-145
  GI50: 7.52 µM
HS 578T
  GI50: 8.29 µM
SK-MEL-5
  GI50: 0.51 µM
PC-3
  GI50: 2.41 µM
OVCAR-5
  GI50: > 100 µM
OVCAR-3
  GI50: 3.66 µM
HT29
  GI50: 6.96 µM
RXF 393
  GI50: 5.75 µM
IGROV1
  GI50: 8.71 µM
NCI/ADR-RES
  GI50: 2.63 µM
SF-295
  GI50: 2.33 µM
LOX IMVI
  GI50: 2.5 µM
UO-31
  GI50: 2.95 µM
786-0
  GI50: 8.88 µM
KM12
  GI50: 3.63 µM
NCI-H522
  GI50: 2.96 µM
UACC-62
  GI50: 2.91 µM
NCI-H226
  GI50: 9.58 µM
HCT-116
  GI50: 2.92 µM
UACC-25
  GI50: 4.75 µM
MDA-MB-468
  GI50: 2.38 µM
OVCAR-4
  GI50: 2.28 µM
MDAMB-435
  GI50: 1.75 µM
TK-10
  GI50: 28 µM

— US8916711B2, “Imidazothiazole-chalcone derivatives as potential anticancer agents and process for the preparation thereof” (Council of Scientific and Industrial Research, priority 2009, dated 2014)
